Results: BindingDB's records for doi:10.1016/j.ejmech.2021.113317 (Universities of Shandong, 2021)
pIC50: −log10 of the molar value.

Assays:
[1] = Reversal of MRP2-mediated multidrug resistance in human KBV cells assessed as cisplatin IC50 at 5 uM after 72 hrs in presence of cisplatin by MTT assay (Rvb = 4902.89 +/- 130.33 nM)
[2] = Reversal of BCRP-mediated multidrug resistance in human KBV cells assessed as mitoxantrone IC50 at 5 uM after 72 hrs in presence of mitoxantrone by MTT assay (Rvb = […] +/- 29.24 nM)
[3] = Reversal of MRP2-mediated multidrug resistance in human KBV cells assessed as cisplatin IC50 at 10 uM after 72 hrs in presence of cisplatin by MTT assay (Rvb = 4902.89 +/- 130.33 nM)
[4] = Reversal of BCRP-mediated multidrug resistance in human KBV cells assessed as mitoxantrone IC50 at 10 uM after 72 hrs in presence of mitoxantrone by MTT assay (Rvb = […] +/- 29.24 nM)

| pIC50 [1] | pIC50 [3] | SMILES | pIC50 [2] | pIC50 [4] |
| --- | --- | --- | --- | --- |
| < 5.30 | < 5.30 | CSCC[C@H](NC(=O)OC(C)(C)C)C(=O)O[C@H]1CC[C@]2(C)[C@H]3C[C@@H](O)[C@@H]4[C@@H]([C@]5(C)CC[C@H](C(C)(C)O)O5)CC[C@@]4(C)[C@]3(C)CC[C@H]2C1(C)C | 6.07 | 6.13 |
| < 5.30 | < 5.30 | CSCC[C@H](NC(=O)OC(C)(C)C)C(=O)O[C@H]1CC[C@]2(C)[C@H]3C[C@@H](O)[C@@H]4[C@@H]([C@]5(C)CC[C@@H](C(C)(C)O)O5)CC[C@@]4(C)[C@]3(C)CC[C@H]2C1(C)C | 5.84 | 6.00 |
| – | < 5.30 | COc1ccc(CCN(C)CCCC(C#N)(c2ccc(OC)c(OC)c2)C(C)C)cc1OC (centres undefined) [NSC_62969] | – | – |
